From patent publication EP4740948A1 (Dong Wha Pharm. Co., Ltd., priority 2023, dated 2025)

Columns and labels:
[1] = target: EZH2 (Homo sapiens, UniProt Q15910); test: AlphaLISA enzyme activity inhibition, EZH2; format: biochemical
Summary of the method: (§1)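 Enzyme inhibition rate was calculated relative to DMSO from AlphaLISA signal, with acceptor beads added after a 2 h methylation reaction and donor beads 1 h later. Each enzyme, EZH1 or EZH2, was pre-mixed with compound (final 5 nM or 10 nM) in Tris buffer pH 8.0 before histone H3 peptide and SAM initiated the reaction.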

[2] = test system: MKN-45 cells; test: Cancer cell proliferation inhibition (Cell Counting Kit-8), gastric cancer cell line; format: cell-based; details: 1000 nM, cultured seven to 11 days; for inhibition at 1 µM: Homo sapiens, MKN-45, 264 h, read-out: % inhibition rate MKN -45
Summary of the method: (§2)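 Single 1000 nM dose of test substance, applied to cells seeded at 100–1,000 per well in 10% FBS medium, then culture for seven to 11 days. CCK-8 read-out; inhibition rate expressed as percent relative to untreated control.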

[3] = test system: MIA-PaCa-2 cells; test: Cancer cell proliferation inhibition (Cell Counting Kit-8), pancreatic cancer cell line; format: cell-based; details: 1000 nM, cultured seven to 11 days; for inhibition at 1 µM: Homo sapiens, MIA PaCa-2, 264 h, read-out: % inhibition rate MIA-Paca2
Summary of the method: (§3)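 Single-concentration test: 1000 nM compound, 7-11 day culture after seeding 100 to 1,000 cells per well in 10% FBS medium. Percent inhibition derived from Cell Counting Kit-8 signal relative to untreated control.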

[4] = test system: NCI-H1299 cells; test: Cancer cell proliferation inhibition (Cell Counting Kit-8), lung cancer cell line; format: cell-based; details: 1000 nM, cultured seven to 11 days; for inhibition at 1 µM: Homo sapiens, NCI-H1299, 264 h, read-out: % inhibition rate NCI-H129 9
Summary of the method: as §3

[5] = target: EZH1 (Homo sapiens, UniProt Q92800); test: AlphaLISA enzyme activity inhibition, EZH1; format: biochemical
Summary of the method: as §1

[6] = test system: G401 cells; test: Cancer cell proliferation inhibition (Cell Counting Kit-8), rhabdoid tumor cell line; format: cell-based; details: 1000 nM, cultured seven to 11 days; for % inhibition rate G401: 1 µM; for inhibition at 1 µM: Homo sapiens, G-401, 264 h, read-out: % inhibition rate G401
Summary of the method: as §2

[7] = test system: SW-13 cells; test: Cancer cell proliferation inhibition (Cell Counting Kit-8), adrenal cancer cell line; format: cell-based; details: 1000 nM, cultured seven to 11 days; for inhibition at 1 µM: Homo sapiens, SW13, 264 h, read-out: % inhibition rate SW-13
Summary of the method: as §3

[8] = test system: Lovo cells; test: Cancer cell proliferation inhibition (Cell Counting Kit-8), colorectal cancer cell line; format: cell-based; details: 1000 nM, cultured seven to 11 days; for inhibition at 1 µM: Homo sapiens, LoVo, 264 h, read-out: % inhibition rate LoVo
Summary of the method: as §3

EZH2, sequence (Q15910 whole entry, species assumed): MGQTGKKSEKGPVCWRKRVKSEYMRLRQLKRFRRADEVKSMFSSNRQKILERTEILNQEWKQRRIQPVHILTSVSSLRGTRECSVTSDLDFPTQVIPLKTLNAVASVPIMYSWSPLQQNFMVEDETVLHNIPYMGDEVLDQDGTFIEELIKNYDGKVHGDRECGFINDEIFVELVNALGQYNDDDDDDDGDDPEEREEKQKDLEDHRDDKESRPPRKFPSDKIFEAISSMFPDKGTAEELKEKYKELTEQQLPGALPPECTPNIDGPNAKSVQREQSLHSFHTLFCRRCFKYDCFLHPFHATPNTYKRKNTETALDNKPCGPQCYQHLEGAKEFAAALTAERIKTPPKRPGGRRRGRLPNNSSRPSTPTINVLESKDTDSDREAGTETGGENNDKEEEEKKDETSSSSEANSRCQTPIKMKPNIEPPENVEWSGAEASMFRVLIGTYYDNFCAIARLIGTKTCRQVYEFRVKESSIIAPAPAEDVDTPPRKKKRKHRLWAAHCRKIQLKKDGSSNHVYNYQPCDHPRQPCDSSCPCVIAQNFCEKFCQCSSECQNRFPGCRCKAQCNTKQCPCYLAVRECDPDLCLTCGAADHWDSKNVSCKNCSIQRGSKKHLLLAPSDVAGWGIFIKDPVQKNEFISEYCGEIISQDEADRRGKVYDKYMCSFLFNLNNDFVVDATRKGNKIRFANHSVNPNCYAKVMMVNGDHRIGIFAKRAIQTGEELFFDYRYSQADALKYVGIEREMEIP
EZH2, sequence (O75530 whole entry partner, species assumed): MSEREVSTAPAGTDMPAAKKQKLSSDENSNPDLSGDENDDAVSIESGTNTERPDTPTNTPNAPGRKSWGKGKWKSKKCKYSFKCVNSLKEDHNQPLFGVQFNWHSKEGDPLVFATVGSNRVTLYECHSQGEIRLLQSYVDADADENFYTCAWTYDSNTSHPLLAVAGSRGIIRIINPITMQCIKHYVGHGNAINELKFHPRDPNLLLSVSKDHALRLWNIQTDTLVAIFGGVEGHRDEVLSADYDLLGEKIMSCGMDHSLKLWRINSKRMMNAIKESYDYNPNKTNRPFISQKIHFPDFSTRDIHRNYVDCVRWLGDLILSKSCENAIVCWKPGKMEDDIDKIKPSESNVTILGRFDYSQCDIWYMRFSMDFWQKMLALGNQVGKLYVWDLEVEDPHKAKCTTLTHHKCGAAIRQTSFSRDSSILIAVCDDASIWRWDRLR
EZH2, sequence (Q15022 whole entry partner, species assumed): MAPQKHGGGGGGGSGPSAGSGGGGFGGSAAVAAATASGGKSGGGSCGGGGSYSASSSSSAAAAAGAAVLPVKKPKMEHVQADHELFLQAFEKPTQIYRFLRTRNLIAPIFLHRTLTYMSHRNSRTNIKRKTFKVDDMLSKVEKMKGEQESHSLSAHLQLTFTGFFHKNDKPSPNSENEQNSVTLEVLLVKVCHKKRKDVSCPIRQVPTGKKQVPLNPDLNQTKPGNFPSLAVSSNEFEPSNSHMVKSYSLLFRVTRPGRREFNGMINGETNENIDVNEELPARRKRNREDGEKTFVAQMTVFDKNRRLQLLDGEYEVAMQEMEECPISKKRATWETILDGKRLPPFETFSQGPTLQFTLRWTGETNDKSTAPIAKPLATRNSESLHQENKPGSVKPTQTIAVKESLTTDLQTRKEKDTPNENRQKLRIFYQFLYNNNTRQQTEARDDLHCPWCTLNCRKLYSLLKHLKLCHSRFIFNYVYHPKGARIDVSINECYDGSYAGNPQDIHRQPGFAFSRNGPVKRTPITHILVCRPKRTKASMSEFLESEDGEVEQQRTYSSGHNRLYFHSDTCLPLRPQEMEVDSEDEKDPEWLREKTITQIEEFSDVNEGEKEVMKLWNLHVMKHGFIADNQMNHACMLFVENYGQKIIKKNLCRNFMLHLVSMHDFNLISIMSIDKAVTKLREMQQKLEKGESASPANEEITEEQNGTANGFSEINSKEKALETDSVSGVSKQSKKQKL
EZH1, sequence (Q92800 whole entry, species assumed): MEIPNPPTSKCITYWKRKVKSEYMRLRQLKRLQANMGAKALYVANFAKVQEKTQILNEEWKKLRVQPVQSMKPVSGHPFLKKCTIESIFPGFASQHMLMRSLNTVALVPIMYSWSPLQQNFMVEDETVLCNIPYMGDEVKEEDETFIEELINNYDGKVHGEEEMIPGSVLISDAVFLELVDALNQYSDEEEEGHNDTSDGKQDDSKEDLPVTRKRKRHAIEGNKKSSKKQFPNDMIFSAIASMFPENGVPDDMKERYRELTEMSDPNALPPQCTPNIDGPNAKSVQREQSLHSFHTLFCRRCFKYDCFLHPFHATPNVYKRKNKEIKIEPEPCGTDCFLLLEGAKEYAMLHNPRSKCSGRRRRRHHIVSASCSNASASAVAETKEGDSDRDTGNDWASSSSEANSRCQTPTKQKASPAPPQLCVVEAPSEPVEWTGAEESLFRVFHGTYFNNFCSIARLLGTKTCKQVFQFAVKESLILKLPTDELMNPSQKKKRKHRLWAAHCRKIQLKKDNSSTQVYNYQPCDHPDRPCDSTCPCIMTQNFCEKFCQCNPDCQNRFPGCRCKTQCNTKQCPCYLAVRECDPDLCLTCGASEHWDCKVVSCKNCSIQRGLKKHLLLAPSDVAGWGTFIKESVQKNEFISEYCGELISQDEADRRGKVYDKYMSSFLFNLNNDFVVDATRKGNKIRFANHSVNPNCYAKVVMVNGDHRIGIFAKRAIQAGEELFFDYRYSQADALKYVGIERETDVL
EZH1, sequence (O75530 whole entry partner, species assumed): as the sequence (O75530 whole entry partner, species assumed) above
EZH1, sequence (Q15022 whole entry partner, species assumed): as the sequence (Q15022 whole entry partner, species assumed) above

Compound	inhibition at 0.005 µM ([1]; 5nM test substance)	inhibition at 0.01 µM ([1]; 10nM test substance)	inhibition at 1 µM [2]	inhibition at 1 µM [3]	inhibition at 1 µM [4]	inhibition at 0.005 µM ([5]; 5nM test substance)	inhibition at 0.01 µM ([5]; 10nM test substance)	% inhibition rate G401 [6]	inhibition at 1 µM [7]	inhibition at 1 µM [8]	other results
CSc1cc(C)[nH]c(=O)c1CNC(=O)c1cc(-c2cnc(N3CCOCC3)nc2)c2c(c1C)OC(C)(C1CCN(CC(F)(F)F)CC1)O2 (single isomer, unassigned) [Compound 69, 2,4-dimethyl-N-((6-methyl-4-(methylthio)-2-oxo-1,2-dihydropyridin-3-yl)methyl)-7-(2-morpholinopyrimidine-5-yl)-2-(1-(2,2,2-trifluoro)piperidin-4-yl)benzo [d][1,3]dioxole-5-carboxamide]	98.2%	99.6%	30 to 70%	≤ 30%	≤ 30%	71.9%	87.9%	+++ (+++: ≥70%)	30 to 70%	≥ 70%	–
CSc1cc(C)[nH]c(=O)c1CNC(=O)c1cc(-c2cnc(N3CCOCC3)nc2)c2c(c1C)OC(C)(C1CCN(CC(F)F)CC1)O2 (single isomer, unassigned) [Compound 71, 2-(1-(2,2-difluoroethyl)piperidin-4-yl)-2,4-dimethyl-N-((6-methyl-4-(methylthio)-2-oxo-1,2-dihydropyridin-3-yl)methyl)-7-(2-morpholinopyrimidin-5-yl)benzo[d][1,3]dioxole-5-carboxamide]	96.1%	99.5%	30 to 70%	≤ 30%	30 to 70%	68.5%	82.8%	+++ (+++: ≥70%)	30 to 70%	≥ 70%	–
CCN1CCC(C2(C)Oc3c(-c4cnc(N5CCOCC5)nc4)cc(C(=O)NCc4c(SC)cc(C)[nH]c4=O)c(C)c3O2)CC1 (single isomer, unassigned) [Compound 73, 2-(1-ethylpiperidin-4-yl)-2,4-dimethyl-N-((6-methyl-4-(methylthio)-2-oxo-1,2-dihydropyridin-3-yl)methyl)-7-(2-morpholinopyrimidin-5-yl)benzo[d][1,3]dioxole-5-carboxamide]	99.2%	99.5%	30 to 70%	≤ 30%	≤ 30%	75.7%	88%	+++ (+++: ≥70%)	30 to 70%	30 to 70%	–
CCN1CCN(c2ncc(-c3cc(C(=O)NCc4c(SC)cc(C)[nH]c4=O)c(C)c4c3OC(C)(C3CCN(CC(F)(F)F)CC3)O4)cn2)CC1 (single isomer, unassigned) [Compound 76, 7-(2-(4-ethylpiperazin-1-yl)pyrimidin-5-yl)-2,4-dimethyl-N-((6-methyl-4-(methylthio)-2-oxo-1,2-dihydropyridin-3-yl)methyl)-2-(1-(2,2,2-trifluoroethyl)piperidin-4-yl)benzo[d][1,3]dioxole-5-carboxamide]	99.5%	99.6%	30 to 70%	≤ 30%	≤ 30%	79%	96.2%	+++ (+++: ≥70%)	30 to 70%	–	% inhibition rate LoVo ([8]; 1 µM): +++ (+++: ≥70%)
CCN(C)c1ccc(-c2cc(C(=O)NCc3c(SC)cc(C)[nH]c3=O)c(C)c3c2OC(C)(C2CCN(CC(F)(F)F)CC2)O3)cn1 (single isomer, unassigned) [Compound 79, 7-(2-(ethyl(methyl)amino)pyridin-5-yl)-2,4-dimethyl-N-((6-methyl-4-(methylthio)-2-oxo-1,2-dihydropyridin-3-yl)methyl)-2-(1-(2,2,2-trifluoroethyl)piperidin-4-yl)benzo[d][1,3]dioxole-5-carboxamide]	97.1%	99.5%	30 to 70%	≤ 30%	30 to 70%	–	–	+++ (+++: ≥70%)	30 to 70%	≥ 70%	Enzyme inhibition % EZH1 ([5]; 5nM test substance, 0.005 µM): 71.9%; Enzyme inhibition % EZH1 ([5]; 10nM test substance, 0.01 µM): 87.4%
CCN(C)c1ncc(-c2cc(C(=O)NCc3c(SC)cc(C)[nH]c3=O)c(C)c3c2OC(C)(C2CCN(CC(F)F)CC2)O3)cn1 (single isomer, unassigned) [Compound 81, 2-(1-(2,2-difluoroethyl)piperidin-4-yl)-7-(2-(ethyl(methyl)amino)pyrimidin-5-yl)-2,4-dimethyl-N-((6-methyl-4-(methylthio)-2-oxo-1,2-dihydropyridin-3-yl)methyl)benzo[d][1,3]dioxole-5-carboxamide]	99.2%	99.8%	30 to 70%	≤ 30%	≤ 30%	80.4%	90.8%	+++ (+++: ≥70%)	30 to 70%	≥ 70%	–
CCN1CCC(C2(C)Oc3c(-c4cnc(N(C)CC)nc4)cc(C(=O)NCc4c(SC)cc(C)[nH]c4=O)c(C)c3O2)CC1 (single isomer, unassigned) [Compound 83, 7-(2-(ethyl(methyl)amino)pyrimidin-5-yl)-2-(1-ethylpiperidin-4-yl)-2,4-dimethyl-N-((6-methyl-4-(methylthio)-2-oxo-1,2-dihydropyridin-3-yl)methyl)benzo[d][1,3]dioxole-5-carboxamide]	99.2%	99.4%	≤ 30%	≤ 30%	≤ 30%	45.3%	78.8%	+++ (+++: ≥70%)	30 to 70%	–	% inhibition rate LoVo ([8]; 1 µM): +++ (+++: ≥70%)
CCN(C)c1ccc(-c2cc(C(=O)NCc3c(SC)cc(C)[nH]c3=O)c(C)c3c2OC(C)(C2CCN(CC(F)(F)F)CC2)O3)cn1 (single isomer, unassigned) [Compound 86, 7-(6-(ethyl(methyl)amino)pyridin-3-yl)-2,4-dimethyl-N-((6-methyl-4-(methylthio)-2-oxo-1,2-dihydropyridin-3-yl)methyl)-2-(1-(2,2,2-trifluoroethyl)piperidin-4-yl)benzo[d][1,3]dioxole-5-carboxamide]	–	–	–	–	–	–	–	+++ (+++: ≥70%)	–	–	Enzyme inhibition % EZH2 ([1]; 5nM test substance, 0.005 µM): 98.3%; Enzyme inhibition % EZH2 ([1]; 10nM test substance, 0.01 µM): 99.2%; % inhibition rate MKN -45 ([2]; 1 µM): ++ (++: more than 30% and less than 70%); % inhibition rate MIA-Paca2 [3]: + (+: ≤30%); % inhibition rate NCI-H129 9 ([4]; 1 µM): + (+: ≤30%); Enzyme inhibition % EZH1 ([5]; 5nM test substance, 0.005 µM): 42.0%; Enzyme inhibition % EZH1 ([5]; 10nM test substance, 0.01 µM): 65.9%; % inhibition rate SW-13 ([7]; 1 µM): + (+: ≤30%); % inhibition rate LoVo [8]: +++ (+++: ≥70%)
CCN(C)c1ccc(-c2cc(C(=O)NCc3c(SC)cc(C)[nH]c3=O)c(C)c3c2OC(C)(C2CCN(CC(F)F)CC2)O3)cn1 (single isomer, unassigned) [Compound 88, 2-(1-(2,2-difluoroethyl)piperidin-4-yl)-7-(6-(ethyl(methyl)amino)pyridin-3-yl)-2,4-dimethyl-N-((6-methyl-4-(methylthio)-2-oxo-1,2-dihydropyridin-3-yl)methyl)benzo[d][1,3]dioxole-5-carboxamide]	99.5%	99.9%	30 to 70%	≤ 30%	≤ 30%	45.2%	62%	–	30 to 70%	≥ 70%	inhibition at 1 µM [6]: ≥ 70%
CCN1CCC(C2(C)Oc3c(-c4ccc(N(C)CC)nc4)cc(C(=O)NCc4c(SC)cc(C)[nH]c4=O)c(C)c3O2)CC1 (single isomer, unassigned) [Compound 89, 7-(6-(ethyl(methyl)amino)pyridin-3-yl)-2-(1-ethylpiperidin-4-yl)-2,4-dimethyl-N-((6-methyl-4-(methylthio)-2-oxo-1,2-dihydropyridin-3-yl)methyl)benzo[d][1,3]dioxole-5-carboxamide]	99.5%	100%	≤ 30%	≤ 30%	≤ 30%	40%	71%	–	30 to 70%	≥ 70%	inhibition at 1 µM [6]: ≥ 70%
CSc1cc(C)[nH]c(=O)c1CNC(=O)c1cc(-c2ccc(N3C[C@@H](C)O[C@@H](C)C3)nc2)c2c(c1C)OC(C)([C@H]1CC[C@H](N(C)CC(F)(F)F)CC1)O2 (single isomer, unassigned) [Compound 107]	–	–	≤ 30%	≤ 30%	≤ 30%	39.3%	–	+++ (+++: ≥70%)	≤ 30%	≥ 70%	Enzyme inhibition % EZH2 ([1]; 5nM test substance, 0.005 µM): 41.7%
